According to PMC9687610, “Adenosine-Mimicking Derivatives of 3-Aminopyrazine-2-Carboxamide: Towards Inhibitors of Prolyl-tRNA Synthetase with Antimycobacterial Activity” (Biomolecules, 2022):
Converted amounts (≈) assume the structure as drawn. Where two headings read alike, the source gives them in different places.

Columns and labels:
[1] = tested on: Mycobacterium tuberculosis H37Ra ITM-M006710 (ATCC 9431); test: Microplate Alamar Blue Assay (MABA), Mtb H37Ra; format: cell-based; conditions: for MIC: Mycobacterium tuberculosis, 120 h, pH 6.6, MABA, Middlebrook 7H9 broth pH 6.6, resazurin after 120 h, read-out: Mtb H37Ra MIC; for antimycobacterial activity (in words): activity refers to Mtb H37Ra from the primary screening if not otherwise stated
[2] = tested on: Mycobacterium smegmatis DSM 43465 (ATCC 607); test: Microplate Alamar Blue Assay (MABA), M. smegmatis; format: cell-based; conditions: for MIC: Mycolicibacterium smegmatis, read-out: M. smegmatis MIC
[3] = tested on: M. aurum DSM 43999 (ATCC 23366); test: Microplate Alamar Blue Assay (MABA), M. aurum; format: cell-based; conditions: Mycolicibacterium aurum; MABA, resazurin after 72 h; read-out: M. aurum MIC
[4] = tested on: Mycobacterium tuberculosis H37Rv CNCTC My 331/88 (ATCC 27294); test: MABA microdilution, Mtb H37Rv; format: cell-based; conditions: for MIC: Mycobacterium tuberculosis, read-out: Mtb H37Rv MIC; for activity on Mtb H37Rv and both MDR strains (in words): virulent strain Mtb H37Rv and MDR isolates IZAK, MATI
[5] = tested on: Staphylococcus aureus subsp. aureus CCM 4223 (ATCC 29213); test: Antibacterial microdilution broth (EUCAST), SA; format: cell-based; conditions: Staphylococcus aureus; read after 24 h; read-out: SA MIC
[6] = tested on: Staphylococcus aureus subsp. aureus methicillin-resistant (MRSA) CCM 4750 (ATCC 43300); test: Antibacterial microdilution broth (EUCAST), MRSA; format: cell-based; conditions: Staphylococcus aureus; read after 24 h; read-out: MRSA MIC
[7] = tested on: Staphylococcus epidermidis CCM 4418 (ATCC 12228); test: Antibacterial microdilution broth (EUCAST), SE; format: cell-based; conditions: read after 24 h, read-out: SE MIC
[8] = tested on: Enterococcus faecalis CCM 4224 (ATCC 29212); test: Antibacterial microdilution broth (EUCAST), EF; format: cell-based; conditions: Enterococcus faecalis
[9] = tested on: Escherichia coli CCM 3954 (ATCC 25922); test: Antibacterial microdilution broth (EUCAST), EC; format: cell-based; conditions: Escherichia coli; read after 24 h; read-out: EC MIC
[10] = tested on: Acinetobacter baumannii DSM 30007 (ATCC 19606); test: Antibacterial microdilution broth (EUCAST), ACI; format: cell-based; conditions: Acinetobacter baumannii; read after 24 h; read-out: ACI MIC
[11] = tested on: Pseudomonas aeruginosa CCM 3955 (ATCC 27853); test: Antibacterial microdilution broth (EUCAST), PA; format: cell-based; conditions: Pseudomonas aeruginosa; read after 24 h; read-out: PA MIC
[12] = tested on: Candida albicans CCM 8320 (ATCC 24433); test: Antifungal microdilution broth (EUCAST), CA; format: cell-based; conditions: Candida albicans; read after 24 h; read-out: CA MIC
[13] = tested on: Candida krusei CCM 8271 (ATCC 6258); test: Antifungal microdilution broth (EUCAST), CK; format: cell-based; conditions: Pichia kudriavzevii; read after 24 h; read-out: CK MIC
[14] = tested on: Candida parapsilosis CCM 8260 (ATCC 22019); test: Antifungal microdilution broth (EUCAST), CP; format: cell-based; conditions: Lodderomyces parapsilosis; read after 24 h; read-out: CP MIC
[15] = tested on: Candida tropicalis CCM 8264 (ATCC 750); test: Antifungal microdilution broth (EUCAST), CT; format: cell-based; conditions: Candida tropicalis; read after 24 h; read-out: CT MIC
[16] = tested on: Aspergillus fumigatus ATCC 204305; test: Antifungal microdilution broth (EUCAST), AF; format: cell-based; conditions: Aspergillus fumigatus, ATCC204305; read after 24 h; read-out: AF MIC
[17] = tested on: Aspergillus flavus CCM 8363; test: Antifungal microdilution broth (EUCAST), AFla; format: cell-based; conditions: Aspergillus flavus, CCM8363; read after 24 h; read-out: AFla MIC
[18] = tested on: Lichtheimia corymbifera CCM 8077; test: Antifungal microdilution broth (EUCAST), LC; format: cell-based; conditions: Lichtheimia corymbifera, CCM8077; read after 24 h; read-out: LC MIC
[19] = tested on: Trichophyton interdigitale CCM 8377 (ATCC 9533); test: Antifungal microdilution broth (EUCAST), TI; format: cell-based; conditions: Trichophyton interdigitale, 72 h, read-out: TI MIC
[20] = tested on: HepG2 human hepatocellular carcinoma cells; test: In vitro HepG2 cytotoxicity (CellTiter 96); conditions: Homo sapiens, HepG2, 24 h, read-out: HepG2 IC50, 24 h incubation; * limit = highest evaluated concentration (precipitation in medium); ** over the 1000 µM limit
[21] = tested on: Klebsiella pneumoniae CCM 4415 (ATCC 10031); test: Antibacterial microdilution broth (EUCAST), KP; conditions: read after 24 h
[22] = read after 24 h, read-out: EF MIC

SMILES | MIC [1] [µg/mL] | MIC ([2]; MABA, resazurin after 48 h) [µg/mL] | MIC [3] [µg/mL] | MIC [5] [µM] | MIC [6] [µM] | MIC [7] [µM] | MIC [8, 22] [µM] | MIC [9] [µM] | MIC [10] [µM] | MIC [11] [µM] | MIC [12] [µM] | MIC [13] [µM] | MIC [14] [µM] | MIC [15] [µM] | MIC [16] [µM] | MIC [17] [µM] | MIC [18] [µM] | MIC [19] [µM] | IC50 [20] [µM] | KP MIC [21] [µM] | other results
Cc1ccc(C(=O)Nc2nccnc2C(N)=O)cc1 [Compound 4] | 7.81 (≈ 30.5 µM) | ≥ 250 | ≥ 250 | > 500 | > 500 | > 500 | > 500 | > 500 | > 500 | > 500 | > 500 | > 500 | > 500 | > 500 | > 500 | > 500 | > 500 | > 500 | > 100 | > 500 | MIC [4]: 6.25 µg/mL (≈ 24.4 µM); activity on Mtb H37Rv and both MDR strains (in words) [4]: significant activity
O=C(O)c1cn(C2CC2)c2cc(N3CCNCC3)c(F)cc2c1=O [CIP, ciprofloxacin, reference compound] | 0.25 (≈ 0.754 µM) | 0.063 (≈ 0.19 µM) | 0.016 (≈ 0.0483 µM) | – | – | – | – | – | – | – | – | – | – | – | – | – | – | – | – | – | MIC [4]: 0.2 µg/mL (≈ 0.604 µM); MIC ([8]; internal quality control, no visible growth, 24 h, read-out: MIC, visual detection): 1.02 µg/mL
NC(=O)c1nccnc1NC(=O)c1ccc(F)cc1 [Compound 12] | 31.2 (≈ 120 µM) | 250 (≈ 961 µM) | ≥ 500 | > 500 | > 500 | > 500 | > 500 | > 500 | > 500 | > 500 | > 500 | > 500 | > 500 | > 500 | > 500 | > 500 | > 500 | > 500 | > 250 | > 500 | MIC [4]: 50 µg/mL (≈ 192 µM); activity on Mtb H37Rv and both MDR strains (in words) [4]: significant activity
NC(=O)c1nccnc1NC(=O)c1ccc(Cl)cc1 [Compound 15] | 3.91 (≈ 14.1 µM) | – | ≥ 250 | > 500 | > 500 | > 500 | > 500 | > 500 | > 500 | > 500 | > 125 | > 125 | > 125 | > 125 | > 125 | > 125 | > 125 | > 125 | > 100 | > 500 | activity against M. smegmatis (in words) [2]: high activity; MIC ([2]; 48 h): 3.91 µg/mL (≈ 14.1 µM); MIC [4]: 6.25 µg/mL (≈ 22.6 µM); activity on Mtb H37Rv and both MDR strains (in words) [4]: significant activity
O=c1[nH]c(-c2ccccc2)nc2nccnc12 [Compound 39] | 62.5 (≈ 279 µM) | ≥ 500 | 125 (≈ 557 µM) | > 125 | > 125 | > 125 | > 125 | > 125 | > 125 | > 125 | > 125 | > 125 | > 125 | > 125 | > 125 | > 125 | > 125 | > 125 | > 1000 | > 125 | melting point: 283.5 to 284.5 °C
O=c1[nH]c(-c2ccc(Cl)cc2)nc2nccnc12 [Compound 42] | ≥ 500 | ≥ 500 | ≥ 500 | > 125 | > 125 | > 125 | > 125 | > 125 | > 125 | > 125 | > 125 | > 125 | > 125 | > 125 | > 125 | > 125 | > 125 | > 125 | > 250 | > 125 | melting point: 306.5 to 307.9 °C
NC(=O)c1nccnc1NC(=O)C1CCCCC1 [Compound 27] | 125 (≈ 503 µM) | 250 (≈ 1010 µM) | ≥ 500 | > 500 | > 500 | > 500 | > 500 | > 500 | > 500 | > 500 | > 500 | > 500 | > 500 | > 500 | > 500 | > 500 | > 500 | > 500 | > 1000 | > 500 | melting point: 105.5 to 107 °C
NC(=O)c1nccnc1NC(=O)Cc1ccc(F)cc1 [Compound 25] | ≥ 250 | ≥ 250 | ≥ 250 | > 250 | > 250 | > 250 | > 250 | > 250 | > 250 | > 250 | > 250 | > 250 | > 250 | > 250 | > 250 | > 250 | > 250 | > 250 | > 100 | > 250 | antimycobacterial activity (in words) [1]: inactive; melting point: 225.3 to 227.3 °C
NC(=O)c1nccnc1NC(=O)CCc1ccccc1 [Compound 26] | 125 (≈ 462 µM) | ≥ 500 | ≥ 500 | > 500 | > 500 | > 500 | > 500 | > 500 | > 500 | > 500 | > 500 | > 500 | > 500 | > 500 | > 500 | > 500 | > 500 | > 500 | > 500 | > 500 | antimycobacterial activity (in words) [1]: inactive; melting point: 160.3 to 161.5 °C
CCc1ccc(C(=O)Nc2nccnc2C(N)=O)cc1 [Compound 5] | ≥ 500 | ≥ 500 | ≥ 500 | > 250 | > 250 | > 250 | > 250 | > 250 | > 250 | > 250 | > 250 | > 250 | > 250 | > 250 | > 250 | > 250 | > 250 | > 250 | > 100 | > 250 | antimycobacterial activity (in words) [1]: no activity; melting point: 215.5 to 218.5 °C
O=c1[nH]c(-c2ccc(Br)cc2)nc2nccnc12 [Compound 43] | 31.2 (≈ 103 µM) | ≥ 500 | ≥ 500 | > 125 | > 125 | > 125 | > 125 | > 125 | > 125 | > 125 | > 125 | > 125 | > 125 | > 125 | > 125 | > 125 | > 125 | > 125 | > 250 | > 125 | melting point: 315.4 to 317.4 °C
